The values below come from the supplement of paper PMC5580409.

Each structure is given as a SMILES string. Bounds are passed on as bounds.

The test deals with Plasmodium falciparum 3D7. Put plainly: pEC50, asexual blood-stage growth inhibition. The following applies: 72 h. On the procedure:
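Held-out test set measured in the Guy lab in 2014 with the same procedure as the primary St. Jude screen. P. falciparum 3D7 blood-stage culture (2% hematocrit, 1% parasitemia) was treated with compound for 72 h at 37 °C, and growth was read by SYBR Green I fluorescence. EC50 came from a four-parameter Hill fit over a 10-point dilution series […].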
Take `COCCOC(=O)C1=C(C)NC2=C(C(=O)CC(c3ccc(OC)cc3)C2)C1c1ccc(Cl)cc1` (centres undefined): the pEC50 amounted to 6.17.
As for `CN1CCN([C@@H]2CCN(Cc3cc(Cl)ccc3O)C[C@H]2O)CC1`, the pEC50 is < 4.82.
Turning to `Cc1cc(S(=O)(=O)N2CCC(CO)(Cc3cccc(C(F)(F)F)c3)CC2)c(C)cc1Cl`, the pEC50 is < 4.82.
For `CN(C)c1ccc(NC(=O)C2CC2c2ccccc2)cc1` (centres undefined), the pEC50 was < 4.82.
For the compound `COc1ccc(CN2CCCn3c4c(c5cc(C)ccc53)CCCC42)cc1` (centres undefined), the pEC50 is < 4.82.
For the compound `Cc1ccc(NC(=O)/C=C/c2ccccc2Cl)cc1`, the pEC50 was determined as 5.46.
The compound `CCOC(=O)C1=C(C)NC2=C(C(=O)CC(c3ccc(OC)cc3)C2)C1c1cc(Br)c(O)c(OC)c1` (centres undefined) displayed a pEC50 of 5.3.
Regarding `CCOc1cc(C2C(C(=O)OCCOc3ccccc3)=C(C)NC3=C2C(=O)CC(c2ccc(Cl)cc2)C3)cc(Cl)c1O` (centres undefined), the pEC50 was < 4.82.
`CCCCNC(=O)c1cn(C2CCCCC2)cc(C(=O)NC2CCN(Cc3ccccc3)CC2)c1=O`: the pEC50 is < 4.82.
Compound `Cc1cccc(CN2CCCn3c4c(c5cc(C)ccc53)CCCC42)c1` (centres undefined) had a pEC50 of 5.33.
Compound `CC(C)c1ccc(NC(=O)/C=C/c2ccccc2)cc1` had a pEC50 of 5.16.
As for `COc1ccc(CNC2CCCCC2)cc1OCC(O)CN(C)Cc1ccccc1` (centres undefined), the pEC50 was < 4.82.
The value for `Cc1cccc(Oc2c(C(F)(F)F)oc3c(CN4CCC(C)CC4)c(O)ccc3c2=O)c1` was < 4.82; that for `COc1cccc(-c2cc(C(=O)N3CCN(Cc4ccccc4)CC3)c3ccccc3n2)c1` was < 4.82; that for `Oc1ccc(Br)cc1CN1CCN(Cc2cccc3ccccc23)CC1` was 6.3.
Turning to `O=S(=O)(/C=C/c1ccccc1)N1CCC(CO)(Cc2cccc(C(F)(F)F)c2)CC1`, the pEC50 was < 4.82.
Turning to `OC(CNc1ccccc1)Cn1c2ccccc2c2ccccc21` (centres undefined), the negative-log EC50 (pEC50) was < 4.82.
Consider `Cc1ccc2[nH]c(-c3ccc(NC(=O)c4ccc(C)c(C)c4)cc3)nc2c1`, for which the pEC50 was determined as 5.44.
Take `CCCCn1nnnc1NCc1ccc(OC)c(OC)c1OC`: the negative logarithm of the EC50 (pEC50) amounted to 6.32.
`CCN1CCN(Cc2c(O)ccc3c(=O)c(Oc4ccccc4Br)c(C(F)(F)F)oc23)CC1` showed a pEC50 of 5.46.
The value for `Cc1ccc(OCC(O)CNC2CCCC2)c(C)c1` (centres undefined) was 5.19; that for `Cc1ccc2c(c1)c1c3n2CCCN=C3CCC1` was < 4.82; that for `COc1ccc(OC)c(NCC(O)Cn2c3ccc(Cl)cc3c3cc(Cl)ccc32)c1` (centres undefined) was < 4.82.
For the compound `COc1ccc(C2CC(=O)NC3=C2C(=O)CC(c2ccc(OC)c(OC)c2)C3)c(OC)c1` (centres undefined), the pEC50 was < 4.82.
In the case of `Cc1cccc(Oc2c(C(F)(F)F)oc3c(CN4CCCC4)c(O)ccc3c2=O)c1`, the pEC50 is < 4.82.
`O=C(CC1C(=O)N(c2cccc(F)c2)C(=O)N1CCc1ccccc1F)Nc1cccc(F)c1` (centres undefined): the pEC50 is < 4.82.
Consider `COc1cc(CNn2nnnc2N)cc(Cl)c1OC`, for which the pEC50 was < 4.82.
`Oc1ccc(Br)cc1CN1CCN(CC2CC3C=CC2C3)CC1` (centres undefined): the pEC50 worked out at 5.39.
To `CCOc1ccccc1Oc1c(C(F)(F)F)oc2c(CN3CCCCCC3)c(O)ccc2c1=O` belongs < 4.82; to `CCC(C(=O)Nc1cccc(-c2nc3ccccc3[nH]2)c1)c1ccccc1` (centres undefined), < 4.82.
As to `CCOC(=O)c1ccc(NC(=O)CC2C(=O)N(c3ccc(OC)cc3)C(=O)N2CCC(C)C)cc1` (centres undefined), the pEC50 was < 4.82.
Take `CC(C)(CO)NCC(O)Cn1c2ccc(Cl)cc2c2cc(Cl)ccc21` (centres undefined): the pEC50 was found to be 5.29.
The compound `N=c1n(CCN2CCCC2)c2ccccc2n1CC(O)c1ccc(Cl)c(Cl)c1` (centres undefined) came in with a pEC50 of 5.88.
For the compound `O=C(Cc1ccccc1)N1CCN(c2ccc([N+](=O)[O-])c(NC3CC3)c2)CC1`, the pEC50 is < 4.82.
Consider `CCN(CC)CCN1C(=O)c2ccccc2NC1c1ccc(Cl)cc1Cl` (centres undefined), for which the pEC50 was < 4.82.
As for `COc1ccccc1-c1c(C(F)(F)F)oc2c(CN3CCC(C)CC3)c(O)ccc2c1=O`, the negative logarithm of the EC50 (pEC50) was < 4.82.
With `COc1ccc(C)cc1S(=O)(=O)N1CCC(CO)(Cc2cccc(C(F)(F)F)c2)CC1`, the pEC50 was < 4.82.
For `Cc1cccc(NCC(O)Cn2c3ccccc3c3ccccc32)c1C` (centres undefined), the pEC50 is < 4.82.
The value for `Clc1ccc(CN2CCN(C3CC4CCC3C4)CC2)cc1` (centres undefined) was < 4.82.
